Measured values taken from patent US20140148484A1, “PYRAZOLE COMPOUNDS FOR TREATING HAIRLOSS” (Boehringer Ingelheim International GmbH, priority 2012, published 2014).

Biological target: T1, human CRTH2 receptor (Homo sapiens, UniProt Q9Y5Y4)
T1 construct: host or cells: CHO-K1 (CHO-K1-hCRTH2 cells); membranes prepared in house from the purchased cell line
T1 sequence (Q9Y5Y4 1-395): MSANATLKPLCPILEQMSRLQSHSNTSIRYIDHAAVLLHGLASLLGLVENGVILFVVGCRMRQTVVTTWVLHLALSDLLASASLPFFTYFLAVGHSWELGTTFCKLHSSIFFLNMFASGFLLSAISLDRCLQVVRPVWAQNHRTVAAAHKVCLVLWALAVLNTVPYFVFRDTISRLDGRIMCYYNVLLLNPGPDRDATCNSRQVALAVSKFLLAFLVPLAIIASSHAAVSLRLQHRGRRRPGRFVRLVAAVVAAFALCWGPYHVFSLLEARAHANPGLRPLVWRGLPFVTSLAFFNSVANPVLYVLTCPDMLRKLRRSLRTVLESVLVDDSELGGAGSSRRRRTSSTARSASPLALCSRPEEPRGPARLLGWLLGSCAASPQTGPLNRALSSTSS
Assay: Human CRTH2 receptor membrane radioligand binding assay (SPA, [3H]-PGD2)
Conditions: displacement of [3H]-PGD2 (1 nM) from CHO-K1-hCRTH2 cell membranes, 3 h room temperature
Experimental: Preparation of Human CRTH2 Receptor Membranes and Radioligand Binding Assay
The binding of CRTH2 antagonists is determined using membranes prepared from Chinese hamster ovary cells (CHO-K1 cells) transfected with the human CRTH2 receptor (CHO-K1-hCRTH2 cells, Perkin Elmer, Cat No ES-561-C). To produce cell membranes the CHO-K1-hCRTH2 cells are cultured in suspension in CHO SFMII medium supplemented with 400 μg/ml G418. The cells are harvested by centrifugation at 300 g for 10 min at room temperature. The cell pellet is resuspended in Phosphate Buffer Saline (PBS) including a protease inhibitor mix (Complete, Roche) and adjusted to a concentration of 10E7 cells/ml. The CHO-K1-hCRTH2 cells are disrupted by nitrogen […] to obtain the membrane preparation. Cell debris is removed by centrifugation (500 g at 4° C., 30 min) and the supernatant is transferred into fresh tubes followed by a second centrifugation at 40000 g for 1 h at 4° C. to sediment the membranes. The membranes are suspended in SPA incubation buffer (50 mM Tris HCl, 10 mM MgCl2, 150 mM NaCl, 1 mM EDTA, pH 7.4) without bovine serum albumin, homogenized by passing through a single use needle (Terumo, 23G×1″), and stored in aliquots at −80° C.
The CRTH2 receptor binding assay is performed in a scintillation proximity assay (SPA) format with the radioligand [^3H]-PGD2 (Perkin Elmer, NET616000MC). CHO-K1-hCRTH2 cell membranes are again homogenized by passing through a single use needle (Terumo, 23G×1″) and diluted in SPA incubation buffer in suitable concentrations (0.5-10 μg protein/well). The SPA assay is set up in 96 well microtiter plates (Perkin Elmer, CatNo. 6005040) in SPA incubation buffer with a final volume of 200 μl per well and final concentration of 50 mM Tris-HCl, 10 mM MgCl2, 150 mM NaCl, 1 mM EDTA pH 7.4, 0.1% bovine serum albumin). The SPA assay mixture contains 60 μl of the membrane suspension, 80 μl of Wheat Germ Agglutinin coated PVT beads (GE Healthcare, RPNQ-0001, 0.3 mg/well), 40 μl of [3H]-PGD2 diluted in SPA buffer to a final concentration of 1 nM (50 000 dpm) and 20 μl of the test compound (dissolved in dimethylsulfoxid). The SPA assay mixture is incubated for 3 h at room temperature. Bound radioactivity is determined with a scintillation counter (Micro Beta Trilux, Wallac).
The binding of [^3H]-PGD2 to CHO-K1-hCRTH2 cell membranes is determined in the absence (total binding, Bo) and presence (non-specific binding, NSB) of unlabelled PGD2 (1 μM, Cayman Chemical, Cat No 12010) or a reference CRTH2 antagonist (10 μM CAY10471, Cayman Chemical, Cat No 10006735).
Determination of the affinity of a test compound is calculated by subtraction of the non-specific binding (NSB) from the total binding (Bo) or the binding in the presence of the test compound (B) at a given compound concentration. […] The Bo−NSB value is set to 0% inhibition.

| Ki [nM] | SMILES |
| --- | --- |
| 0.8 | Cc1nn(Cc2ccc(NC(=O)c3ccc(C(F)(F)F)cc3)cc2Cl)c(C)c1CC(=O)O [Example 7.8] |
| 2.5 | Cc1nn(Cc2ccc(NC(=O)CCc3ccccc3)cc2Cl)c(C)c1CC(=O)O [Example 7.9] |
| 5.5 | Cc1nn(Cc2ccc(NC(=O)c3ccccc3)cc2Cl)c(C)c1CC(=O)O [Example 7.10] |
| 0.9 | Cc1nn(Cc2ccc(NC(=O)/C=C/c3ccccc3)cc2Cl)c(C)c1CC(=O)O [Example 7.11] |
| 4.7 | Cc1ccc(C(=O)Nc2ccc(Cn3nc(C)c(CC(=O)O)c3C)c(Cl)c2)c(C)c1 [Example 7.12] |
| 1.3 | Cc1nn(Cc2ccc(NC(=O)c3ccc4ccccc4c3)cc2Cl)c(C)c1CC(=O)O [Example 7.13] |
| 1.6 | Cc1cc(C(F)(F)F)ccc1C(=O)Nc1ccc(Cn2nc(C)c(CC(=O)O)c2C)c(Cl)c1 [Example 7.14] |
| 0.6 | Cc1nn(Cc2ccc(NC(=O)c3ccc(Cl)c(Cl)c3)cc2Cl)c(C)c1CC(=O)O [Example 7.15] |
| 3.5 | Cc1cc(C(F)(F)F)ccc1C(=O)Nc1ccc(Cn2nc(C)c(CC(=O)O)c2C)c(F)c1 [Example 7.16] |
| 1.1 | Cc1nn(Cc2ccc(NC(=O)c3ccc(C(F)(F)F)cc3)cc2F)c(C)c1CC(=O)O [Example 7.17] |
| 2.4 | Cc1nn(Cc2ccc(NC(=O)c3ccc(Cl)c(Cl)c3)cc2F)c(C)c1CC(=O)O [Example 7.18] |
| 5.8 | Cc1cc(Cl)ccc1C(=O)Nc1ccc(Cn2nc(C)c(CC(=O)O)c2C)c(F)c1 [Example 7.19] |
| 2.2 | Cc1nn(Cc2ccc(NC(=O)c3ccc4ccccc4c3)cc2F)c(C)c1CC(=O)O [Example 7.20] |
| 1.9 | Cc1nn(Cc2ccc(NC(=O)/C=C/c3ccccc3)cc2F)c(C)c1CC(=O)O [Example 7.21] |
| 1660 | Cc1cc(Cl)ccc1C(=O)Nc1ccc(Cn2nc(C)c(CCC(=O)O)c2C)cc1 [Example 8.1] |
| 125 | Cc1nn(Cc2ccc(NC(=O)c3ccc(C(F)(F)F)cc3)cc2)c(C)c1CCC(=O)O [Example 8.2] |
| 3760 | Cc1nn(Cc2ccc(NC(=O)c3ccccc3)cc2)c(C)c1CCC(=O)O [Example 8.3] |
| 26.1 | Cc1nn(Cc2ccc(NC(=O)c3ccc(C(C)(C)C)cc3)cc2)c(C)c1CCC(=O)O [Example 8.4] |
| 427 | Cc1nn(Cc2ccc(NC(=O)CCc3ccccc3)cc2)c(C)c1CCC(=O)O [Example 8.5] |

| Ki [nM] | SMILES |
| --- | --- |
| 126 | Cc1nn(Cc2ccc(NC(=O)c3ccc(Cl)c(Cl)c3)cc2)c(C)c1CCC(=O)O [Example 8.6] |
| 669 | Cc1cc(C(F)(F)F)ccc1C(=O)Nc1ccc(Cn2nc(C)c(CCC(=O)O)c2C)cc1 [Example 8.7] |
| 1480 | Cc1nn(Cc2ccc(C(=O)Nc3cccc(F)c3)cc2)c(C)c1CC(=O)O [Example 9.1] |
| 24.5 | Cc1nn(Cc2ccc(C(=O)Nc3ccc(Cl)c(F)c3)cc2)c(C)c1CC(=O)O [Example 9.2] |
| 8.7 | Cc1nn(Cc2ccc(C(=O)Nc3ccc(Cl)c(Cl)c3)cc2)c(C)c1CC(=O)O [Example 9.3] |
| 18.6 | Cc1nn(Cc2ccc(C(=O)Nc3ccc(F)c(Cl)c3)cc2)c(C)c1CC(=O)O [Example 9.4] |
| 13.7 | Cc1nn(Cc2ccc(C(=O)Nc3cccc(C(F)(F)F)c3)cc2)c(C)c1CC(=O)O [Example 9.5] |
| 3 | Cc1nn(Cc2ccc(C(=O)Nc3ccc(Cl)c(C(F)(F)F)c3)cc2)c(C)c1CC(=O)O [Example 9.6] |
| 7.5 | Cc1ccc(NC(=O)c2ccc(Cn3nc(C)c(CC(=O)O)c3C)cc2)cc1Cl [Example 9.7] |
| 31 | Cc1nn(Cc2ccc(C(=O)Nc3cc(Cl)cc(Cl)c3)cc2)c(C)c1CC(=O)O [Example 9.8] |
| 19.4 | Cc1nn(Cc2ccc(C(=O)Nc3ccc(Br)c(F)c3)cc2)c(C)c1CC(=O)O [Example 9.9] |
| 39.1 | CCc1nn(Cc2ccc(C(=O)Nc3cccc(F)c3)cc2)c(CC)c1CC(=O)O [Example 9.10] |
| 7.1 | CCc1nn(Cc2ccc(C(=O)Nc3ccc(Cl)c(F)c3)cc2)c(CC)c1CC(=O)O [Example 9.11] |
| 4.8 | CCc1nn(Cc2ccc(C(=O)Nc3ccc(F)c(Cl)c3)cc2)c(CC)c1CC(=O)O [Example 9.12] |
| 0.9 | CCc1nn(Cc2ccc(C(=O)Nc3ccc(Cl)c(C(F)(F)F)c3)cc2)c(CC)c1CC(=O)O [Example 9.13] |
| 3.1 | CCc1nn(Cc2ccc(C(=O)Nc3ccc(F)c(Br)c3)cc2)c(CC)c1CC(=O)O [Example 9.14] |
| 32 | CC(C)(C)c1nn(Cc2ccc(C(=O)Nc3ccc(F)c(Cl)c3)cc2)c(C(C)(C)C)c1CC(=O)O [Example 9.15] |
| 6.7 | CCc1nn(Cc2ccc(C(=O)Nc3ccc(Br)c(F)c3)cc2)c(CC)c1CC(=O)O [Example 9.16] |
| 34.9 | CCc1nn(Cc2ccc(C(=O)NCc3ccc4ccccc4c3)cc2)c(CC)c1CC(=O)O [Example 9.17] |

| Ki [nM] | SMILES |
| --- | --- |
| 24.9 | CCc1nn(Cc2ccc(C(=O)NCc3ccc(Cl)c(Cl)c3)cc2)c(CC)c1CC(=O)O [Example 9.18] |
| 30.5 | CCc1nn(Cc2ccc(C(=O)NCc3ccc(Cl)c(C(F)(F)F)c3)cc2)c(CC)c1CC(=O)O [Example 9.19] |
| 38 | CCc1nn(Cc2ccc(C(=O)NCc3ccc(C(F)(F)F)cc3)cc2)c(CC)c1CC(=O)O [Example 9.20] |
| 7.8 | CCc1nn(Cc2ccc(C(=O)N[C@H]3CC[C@H](c4ccccc4)CC3)cc2)c(CC)c1CC(=O)O [Example 9.21] |
| 15.6 | CCc1nn(Cc2ccc(C(=O)N[C@@H]3CCC[C@H](c4ccccc4)C3)cc2)c(CC)c1CC(=O)O [Example 9.22] |
| 4 | CCc1nn(Cc2ccc(C(=O)Nc3ccc4ccccc4n3)cc2)c(CC)c1CC(=O)O [Example 9.23] |
| 49.1 | CCc1nn(Cc2ccc(C(=O)NC3CCC(C)(C)CC3)cc2)c(CC)c1CC(=O)O [Example 9.24] |
| 32.1 | CCc1nn(Cc2ccc(C(=O)NC3CCC4CCCCC4C3)cc2)c(CC)c1CC(=O)O (stereo not drawn) [Example 9.25] |
| 39.4 | CCc1nn(Cc2ccc(C(=O)NC3CCC(C(C)(C)C)CC3)cc2)c(CC)c1CC(=O)O (stereo not drawn) [Example 9.26] |
| 0.5 | CCc1nn(Cc2ccc(C(=O)Nc3ccc(Cl)c(C(F)(F)F)c3)cc2F)c(CC)c1CC(=O)O [Example 9.27] |
| 10.4 | CCc1nn(Cc2ccc(C(=O)NCc3cc4ccccc4o3)cc2F)c(CC)c1CC(=O)O [Example 9.28] |
| 2.6 | Cc1nn(Cc2ccc(S(=O)(=O)Nc3ccc(F)cc3)cc2)c(C)c1CC(=O)O [Example 10.1] |
| 742 | COc1ccc(CCNS(=O)(=O)c2ccc(Cn3nc(C)c(CC(=O)O)c3C)cc2)cc1OC [Example 10.2] |
| 16.1 | CCc1nn(Cc2ccc(S(=O)(=O)Nc3ccc(C)c(Cl)c3)cc2)c(CC)c1CC(=O)O [Example 10.3] |
| 21.6 | CCc1nn(Cc2ccc(S(=O)(=O)Nc3ccc(Cl)c(Cl)c3)cc2)c(CC)c1CC(=O)O [Example 10.4] |
| 27.8 | CCc1nn(Cc2ccc(S(=O)(=O)Nc3ccc(Cl)c(F)c3)cc2)c(CC)c1CC(=O)O [Example 10.5] |
| 29.4 | Cc1nn(Cc2ccc(NC(=O)c3ccc(C(F)(F)F)cc3)cc2)c(C)c1CC(=O)NS(=O)(=O)C(C)(C)C [Example 11.1] |
| 127 | Cc1nn(Cc2ccc(C#Cc3ccc(C(F)(F)F)cc3)cc2)c(C)c1CC(=O)O [Example 12.1] |
| 56.3 | Cc1nn(Cc2ccc(/C=C/c3ccc(C(F)(F)F)cc3)cc2)c(C)c1CC(O)O [Example 12.2] |
